One experiment deals with T1, CDK1:Cyclin-B (Homo sapiens, UniProt P06493).
T1 construct: purchased New England Biolabs, Beverly, Mass; (CDK1); BIOMOL, Plymouth Meeting, Pa; (Cyclin-B) #6020 (CDK1); #SE-195 (Cyclin-B); host or cells: insect cells
Kind of experiment: CDK1 Screening Assay. The format is biochemical. The note with it: 10 μM ATP, histone-H1 peptide substrate, 1 hour at 30° C. The method, then:
A kinase reaction mixture was prepared containing 50 mM Tris-HCl pH=8, 10 mM MgCl2, 0.1 mM Na3PO4, 1 mM DTT, 10 μM ATP, 0.025 μM biotinylated histone-H1 peptide substrate and 0.2 μCuries per well^33P-γ-ATP [2000–3000 Ci/mmol]. 70 μL of the kinase reaction mixture was dispensed into the well of a streptavidin coated FlashPlate™ (Cat. #SMP103, NEN, Boston, Mass.). Then 1 μL of test compound stock in 100% DMSO was added to the wells resulting in a final concentration of 1% DMSO in the reaction with a 100 μL final reaction volume. CDK1:Cyclin-B protein^1 was diluted in 50 mM Tris-HCl pH=8.0, 0.1% BSA at a concentration of 1 ng per microliter. 30 μL (30 ng enzyme per test well) was added to each well to initiate the reaction, The reaction was incubated for one hour at 30° C. At the end of the 1-hour incubation, the reaction was terminated by aspirating the reaction mixture from the plate and washing the wells twice with PBS containing 100 mM EDTA. The histone-H1 biotinylated peptide substrate became immobilized on the Flashplate™ and the incorporation of ^33P-γ-ATP was measured by reading the plate on a scintillation counter. Inhibition of the enzymatic activity of CDK1 was measured by observing a reduced amount of ^33P-γ-ATP incorporated into the immobilized peptide. ^1CDK1 (cyclin dependent kinase 1) was isolated from insect cells expressing both the human CDK1 catalytic subunit and its positive regulatory subunit Cyclin B (CDK1: New England Biolabs, Beverly, Mass., Cat. #6020; Cyclin-B: BIOMOL, Plymouth Meeting, Pa., Cat. #SE-195); Peptide Substrate (Biotin)KTPKKAKKPKTPKKAKKL-Amide.
(§1) IC50 values listed as >10 or >100 indicate no observed 50% inhibition at the highest dose tested, nor was an inhibition maximum observed.

Another experiment concerns the target T2, VEGF-R2 kinase (Rattus norvegicus, UniProt O08775).
T2 construct: polyhistidine (N)
Kind of experiment: VEGF-R2 Kinase Screening Assay. In kind it is biochemical. The settings on record: soluble rat VEGF-R2 kinase, 10 μM ATP; read-out: VEGF-R IC50. How it is done: A kinase reaction mixture was prepared containing 50 mM Tris-HCl pH=8, 10 mM MgCl2, 0.1 mM Na3PO4, 1 mM DTT, 10 μM ATP, 0.025 uM biotinylated peptide substrate and 0.8 μCuries per well^33P-γ-ATP [2000–3000 Ci/mmol]. 70 μL of the kinase reaction mixture was dispensed into the well of a streptavidin coated FlashPlate™ (Cat. #SMP103, NEN, Boston, Mass.). 1 μL of test compound stock in 100% DMSO was added to the wells resulting in a final concentration of 1% DMSO in the mixture with a 100 μL final reaction volume. Soluble rat VEGF-R2 kinase^3 was diluted in 50 mM Tris-HCl pH=8.0, 0.1% BSA at a concentration of 5 ng per microliter and 30 μL (150 ng enzyme per test well) was added to each well to initiate the reaction. The reaction was incubated for one hour at 30° C. At the end of the 1-hour incubation, the reaction was terminated by aspirating the reaction mixture from the plate and washing the wells twice with PBS containing 100 mM EDTA. The PLC1 biotinylated peptide substrate became immobilized on the Flashplate™ and the incoporation of ^33P-γ-ATP was measured by reading the plate on a scintillation counter. Inhibition of the enzymatic activity of the VEGF-R was measured by observing a reduced amount of ^33P-γ-ATP incorporated into the immobilized peptide. ^3VEGF-R2 kinase (Vascular Endothelial Growth Factor Receptor-2): a fusion protein containing a polyhistidine tag at the N-terminus followed by amino acids 786–1343 of the rat VEGF-R2 kinase domain GenBank Accession #U93306); Peptide Substrate (Biotin)KHKKLAEGSAYEEV-Amide
as §1

Bounds are passed on as bounds.

We go through 27 compounds from patent US7109220B2, “Amino substituted pyridinyl methanone compounds useful in treating kinase disorders” (Janssen Pharmaceutica N.V., priority 2003, dated 2006).

T1 sequence (P06493 whole entry): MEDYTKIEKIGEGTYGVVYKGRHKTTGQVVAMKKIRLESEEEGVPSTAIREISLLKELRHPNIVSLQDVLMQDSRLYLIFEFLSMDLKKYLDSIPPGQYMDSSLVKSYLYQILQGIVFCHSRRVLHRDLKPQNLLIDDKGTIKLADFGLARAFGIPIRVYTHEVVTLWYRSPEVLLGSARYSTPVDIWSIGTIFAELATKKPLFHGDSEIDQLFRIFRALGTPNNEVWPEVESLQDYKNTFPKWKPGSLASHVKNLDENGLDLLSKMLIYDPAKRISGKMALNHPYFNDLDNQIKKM
T1 sequence (P14635 whole entry partner): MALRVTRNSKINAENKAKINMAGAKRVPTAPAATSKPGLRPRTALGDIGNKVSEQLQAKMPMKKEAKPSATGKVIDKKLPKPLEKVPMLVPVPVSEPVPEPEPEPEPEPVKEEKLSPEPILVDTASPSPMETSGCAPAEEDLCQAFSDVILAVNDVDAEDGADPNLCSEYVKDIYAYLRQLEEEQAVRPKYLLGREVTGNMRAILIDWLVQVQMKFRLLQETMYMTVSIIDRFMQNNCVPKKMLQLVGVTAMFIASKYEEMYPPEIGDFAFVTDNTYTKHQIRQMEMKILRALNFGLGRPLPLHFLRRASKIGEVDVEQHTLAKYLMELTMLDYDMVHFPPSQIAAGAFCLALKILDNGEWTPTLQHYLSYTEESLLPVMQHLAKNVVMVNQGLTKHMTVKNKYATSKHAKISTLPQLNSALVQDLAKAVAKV
T2 sequence (O08775 786-1343): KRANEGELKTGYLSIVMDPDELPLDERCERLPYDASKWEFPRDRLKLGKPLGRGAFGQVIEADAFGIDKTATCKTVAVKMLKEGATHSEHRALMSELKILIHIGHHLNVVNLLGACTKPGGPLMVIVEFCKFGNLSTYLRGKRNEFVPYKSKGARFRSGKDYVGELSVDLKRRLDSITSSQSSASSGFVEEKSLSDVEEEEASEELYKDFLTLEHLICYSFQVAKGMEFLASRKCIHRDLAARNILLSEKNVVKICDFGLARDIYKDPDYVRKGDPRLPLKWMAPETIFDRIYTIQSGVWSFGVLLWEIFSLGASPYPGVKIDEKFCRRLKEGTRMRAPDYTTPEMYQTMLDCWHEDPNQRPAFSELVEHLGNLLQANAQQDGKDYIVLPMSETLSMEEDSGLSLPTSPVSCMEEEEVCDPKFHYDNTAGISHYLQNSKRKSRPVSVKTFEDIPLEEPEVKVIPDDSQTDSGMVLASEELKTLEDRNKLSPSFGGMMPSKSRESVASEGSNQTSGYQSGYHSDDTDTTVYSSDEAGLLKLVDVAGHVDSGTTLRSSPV

“4-[[6-amino-5-(2,6-difluorobenzoyl)-2-pyridinyl]amino]benzonitrile [Cpd 15]”: the results for the IC50 against CDK1:Cyclin-B and at VEGF-R2 kinase were 0.95 µM and over 10 µM, respectively.

With `Nc1ccc(C(=O)c2ccccc2F)c(N)n1` [Cpd 2, (2,6-diamino-3-pyridinyl)(2-fluorophenyl)methanone], the IC50 at VEGF-R2 kinase is over 10 µM.

`Nc1nc(Nc2ccc(S(=O)(=O)N(Cc3ccccc3)Cc3ccccc3)cc2)ccc1C(=O)c1c(F)cccc1F` [Cpd 2b, 4-[[6-amino-5-(2,6-difluorobenzoyl)-2-pyridinyl]amino]-N,N-bis(phenylmethyl)benzenesulfonamide]: the IC50 on CDK1:Cyclin-B and at VEGF-R2 kinase was over 10 µM in each case.

For `Nc1ccc(C(=O)c2ccccc2)c(N)n1` [Cpd 3, (2,6-diamino-3-pyridinyl)phenylmethanone], at VEGF-R2 kinase, the IC50 is over 10 µM.

For the compound `Nc1ccc(C(=O)c2ccco2)c(N)n1` [Cpd 4, (2,6-diamino-3-pyridinyl)-2-furylmethanone], the IC50 on CDK1:Cyclin-B and on VEGF-R2 kinase was over 100 µM in each case.

For `Nc1ccc(C(=O)c2cccs2)c(N)n1` [Cpd 5, (2,6-diamino-3-pyridinyl)-2-thienylmethanone], the IC50 against CDK1:Cyclin-B and at VEGF-R2 kinase was over 100 µM each time.

For `Nc1nc(Nc2ccc(S(N)(=O)=O)cc2)ccc1C(=O)c1c(F)cccc1F` [Cpd 6, 4-[[6-amino-5-(2,6-difluorobenzoyl)-2-pyridinyl]amino]benzenesulfonamide], on VEGF-R2 kinase, the half-inhibitory concentration (IC50) was over 10 µM.

On to `CN(C)S(=O)(=O)c1ccc(Nc2ccc(C(=O)c3c(F)cccc3F)c(N)n2)cc1` [Cpd 7, 4-[[6-amino-5-(2,6-difluorobenzoyl)-2-pyridinyl]amino]-N,N-dimethylbenzenesulfonamide], for which the figures for the 50% inhibitory concentration (IC50) against CDK1:Cyclin-B and on VEGF-R2 kinase were 0.26 µM and over 10 µM, respectively.

In the case of `Nc1nc(Nc2cccc([N+](=O)[O-])c2)ccc1C(=O)c1c(F)cccc1F` [Cpd 10, [2-amino-6-[(3-nitrophenyl)amino]-3-pyridinyl](2,6-difluorophenyl)methanone], the IC50 on VEGF-R2 kinase is over 100 µM.

As for `Nc1nc(Nc2cccc(Cl)c2)ccc1C(=O)c1c(F)cccc1F` [Cpd 11, [2-amino-6-[(3-chlorophenyl)amino]-3-pyridinyl](2,6-difluorophenyl)methanone], the results for the IC50 at CDK1:Cyclin-B and at VEGF-R2 kinase were 6.16 µM and over 100 µM, respectively.

Take `Nc1nc(Nc2ccccc2[N+](=O)[O-])ccc1C(=O)c1c(F)cccc1F` [Cpd 12, [2-amino-6-[(2-nitrophenyl)amino]-3-pyridinyl](2,6-difluorophenyl)methanone]: the IC50 against CDK1:Cyclin-B and at VEGF-R2 kinase was over 10 µM throughout.

As to `Nc1nc(Nc2ccccc2)ccc1C(=O)c1c(F)cccc1F` [Cpd 13, [2-amino-6-(phenylamino)-3-pyridinyl](2,6-difluorophenyl)methanone], the results for the IC50 against CDK1:Cyclin-B and at VEGF-R2 kinase were 21.7 µM and over 100 µM, respectively.

As for `Nc1nc(Nc2ccccn2)ccc1C(=O)c1c(F)cccc1F` [Cpd 14, [2-amino-6-(2-pyridinylamino)-3-pyridinyl](2,6-difluorophenyl)methanone], the IC50 at VEGF-R2 kinase was over 100 µM.

Regarding `Nc1nc(Nc2ccc(C(=O)O)cc2)ccc1C(=O)c1c(F)cccc1F` [Cpd 16, 4-[[6-amino-5-(2,6-difluorobenzoyl)-2-pyridinyl]amino]benzoic acid], on VEGF-R2 kinase, the IC50 is over 10 µM.

In the case of `Nc1ccc(Nc2ccc(C(=O)c3c(F)cccc3F)c(N)n2)cc1` [Cpd 17, [2-amino-6-[(4-aminophenyl)amino]-3-pyridinyl](2,6-difluorophenyl)methanone], on VEGF-R2 kinase, the IC50 is over 10 µM.

For the compound `CNc1ccc(Nc2ccc(C(=O)c3c(F)cccc3F)c(N)n2)cc1` [Cpd 18, [2-amino-6-[[4-(methylamino)phenyl]amino]-3-pyridinyl](2,6-difluorophenyl)methanone], the IC50 at VEGF-R2 kinase is over 10 µM.

Regarding `Nc1nc(Nc2ccc(NS(=O)(=O)c3ccccc3)cc2)ccc1C(=O)c1c(F)cccc1F` [Cpd 19, N-[4-[[6-amino-5-(2,6-difluorobenzoyl)-2-pyridinyl]amino]phenyl]benzenesulfonamide], the half-inhibitory concentration (IC50) on VEGF-R2 kinase was over 10 µM.

On to `Nc1ccccc1Nc1ccc(C(=O)c2c(F)cccc2F)c(N)n1` [Cpd 20, [2-amino-6-[(2-aminophenyl)amino]-3-pyridinyl](2,6-difluorophenyl)methanone], for which, on VEGF-R2 kinase, the IC50 was over 100 µM.

As for `CC(=O)Nc1ccccc1Nc1ccc(C(=O)c2c(F)cccc2F)c(N)n1` [Cpd 21, N-[2-[[6-amino-5-(2,6-difluorobenzoyl)-2-pyridinyl]amino]phenyl]acetamide], the IC50 against CDK1:Cyclin-B and on VEGF-R2 kinase was over 100 µM each time.

`Nc1nc(Nc2ccccc2NC(=O)c2ccccc2)ccc1C(=O)c1c(F)cccc1F` [Cpd 22, N-[2-[[6-amino-5-(2,6-difluorobenzoyl)-2-pyridinyl]amino]phenyl]benzamide]: the IC50 against CDK1:Cyclin-B and on VEGF-R2 kinase was over 100 µM throughout.

With `Nc1nc(Nc2ccccc2NS(=O)(=O)c2ccccc2)ccc1C(=O)c1c(F)cccc1F` [Cpd 23, N-[2-[[6-amino-5-(2,6-difluorobenzoyl)-2-pyridinyl]amino]phenyl]benzenesulfonamide], the IC50 against CDK1:Cyclin-B and on VEGF-R2 kinase was over 100 µM each time.

Turning to `CN(C)S(=O)(=O)c1ccc(Nc2ccc(C(=O)c3ccccc3F)c(N)n2)cc1` [Cpd 24, 4-[[6-amino-5-(2-fluorobenzoyl)-2-pyridinyl]amino]-N,N-dimethyl benzenesulfonamide], at VEGF-R2 kinase, the IC50 is over 100 µM.

Regarding `CN(C)S(=O)(=O)c1ccc(Nc2ccc(C(=O)c3ccccc3)c(N)n2)cc1` [Cpd 25, 4-[(6-amino-5-benzoyl-2-pyridinyl)amino]-N,N-dimethylbenzenesulfonamide], the IC50 at VEGF-R2 kinase is over 100 µM.

For `CCN(CC)S(=O)(=O)c1ccc(Nc2ccc(C(=O)c3ccccc3)c(N)n2)cc1` [Cpd 26, 4-[(6-amino-5-benzoyl-2-pyridinyl)amino]-N,N-diethylbenzenesulfonamide], the IC50 against CDK1:Cyclin-B and on VEGF-R2 kinase was over 100 µM throughout.

On to `CN(C)S(=O)(=O)c1ccc(Nc2ccc(C(=O)c3ccco3)c(N)n2)cc1` [Cpd 27, 4-[[6-amino-5-(2-furanylcarbonyl)-2-pyridinyl]amino]-N,N-dimethyl benzenesulfonamide], for which the IC50 at VEGF-R2 kinase was over 100 µM.

Regarding `CCN(CC)S(=O)(=O)c1ccc(Nc2ccc(C(=O)c3ccco3)c(N)n2)cc1` [Cpd 28, 4-[[6-amino-5-(2-furanylcarbonyl)-2-pyridinyl]amino]-N,N-diethylbenzenesulfonamide], the IC50 against CDK1:Cyclin-B and on VEGF-R2 kinase was over 100 µM each time.

As to `CN(C)S(=O)(=O)c1ccc(Nc2ccc(C(=O)c3cccs3)c(N)n2)cc1` [Cpd 29, 4-[[6-amino-5-(2-thienylcarbonyl)-2-pyridinyl]amino]-N,N-dimethylbenzene sulfonamide], at VEGF-R2 kinase, the IC50 is over 100 µM.
